# Legend:
# Assay in all cases: high resolution minimum inhibitory concentration (HRMIC) test
# Assay type in all cases: cell-based
# [1] = tested on: Staphylococcus aureus 6538
# Method: (§1) Biological Activity: certain compounds of the present invention were tested for activity against three microorganisms, Escherichia coli 8739 (Gram-negative bacterium) and Staphylococcus aureus 6538 (Gram-positive bacterium) and Aspergillus niger 16404.
# (§2) The lowest concentration of test compound required to inhibit Staphylococcus aureus 6538, Escherichia coli 8739 and Aspergillus niger 16404 was determined by a high resolution minimum inhibitory concentration (HRMIC) test. Varying amounts of the test compounds were added to minimal salts glucose medium (see T. Maniatis, E.F. Fritsch and J. Sambrook, Molecular Cloning, p 68 (1982)) supplemented with 0.1% yeast extract (M9GY) in a 96-well microtiter plate. Ten-fold serial dilutions were performed on a Biomek™ 2000 Workstation to obtain a range of closely spaced concentrations of test compound as shown in Table 1 (based on dilutions of a 10,000 ppm active ingredient stock solution of the test compound). The plates were inoculated with cell suspension of inoculum and adjusted to provide about 10^6 CFU (colony forming units)/ml in each well. The microtiter plates were incubated at 30°C for 24 hours and then checked (optical density at 650 nm using a microplate reader) for the presence or absence of microbial growth in each well. […] Data reported (ppm active ingredient) are the average of multiple determinations (see Table 2).
# Aspergillus niger 16404 = details: ppm active ingredient, M9GY medium, about 10^6 CFU/ml, 30°C for 24 hours, average of multiple determinations
# Method: as §1, §2
# Escherichia coli 8739 = details: for better control versus Gram-negative (E. coli) bacteria than compound 6: ratio of MIC relative to compound 6 (MIC >1000 ppm)
# Method: as §1, §2
Structure (SMILES),"MIC ([1]; Staphylococcus aureus, 6538, ppm active ingredient, M9GY medium, about 10^6 CFU/ml, 30°C for 24 hours, average of multiple determinations, read-out: MIC (ppm) S. aur) [µg/mL]",better control versus Gram-positive (S. aur) bacteria than compound 6 ([1]; ratio of MIC relative to compound 6) [fold],MIC (Aspergillus niger 16404) [µg/mL],"MIC (Escherichia coli 8739; Escherichia coli, 8739, ppm active ingredient, M9GY medium, about 10^6 CFU/ml, 30°C for 24 hours, average of multiple determinations, read-out: MIC (ppm) E. coli) [µg/mL]",better control versus Gram-negative (E. coli) bacteria than compound 6 (Escherichia coli 8739)
"Cn1sc(Sc2cccc[n+]2[O-])cc1=O [Compound 3, [2-methyl-3-isothiazolon-5-yl]-(1-oxypyridin-2-yl)sulfide]",1,5,60,6,≥ 160 fold
"CCCCCCCCn1sc(Sc2cccc[n+]2[O-])c(Cl)c1=O [Compound 5, [4-chloro-2-n-octyl-3-isothiazolon-5-yl]-(1-oxypyridin-2-yl)sulfide]",,,,,at least 30 fold
